Source: patent publication US20250059182A1, “SOS1 INHIBITORS” (Mirati Therapeutics, Inc., priority 2021, published 2025)
Where two headings read alike, the source gives them in different places.

Experiments:
[1] = target: T1, recombinant human SOS1 polypeptide (amino acids 560-1049) (Homo sapiens, UniProt Q07889); assay: HTRF displacement assay: inhibition of labeled tracer binding to SOS1
T1 construct: corresponding to amino acids 560-1049, expressed in E. Coli; made in house; host or cells: E. coli
T1 sequence (Q07889 560-1049): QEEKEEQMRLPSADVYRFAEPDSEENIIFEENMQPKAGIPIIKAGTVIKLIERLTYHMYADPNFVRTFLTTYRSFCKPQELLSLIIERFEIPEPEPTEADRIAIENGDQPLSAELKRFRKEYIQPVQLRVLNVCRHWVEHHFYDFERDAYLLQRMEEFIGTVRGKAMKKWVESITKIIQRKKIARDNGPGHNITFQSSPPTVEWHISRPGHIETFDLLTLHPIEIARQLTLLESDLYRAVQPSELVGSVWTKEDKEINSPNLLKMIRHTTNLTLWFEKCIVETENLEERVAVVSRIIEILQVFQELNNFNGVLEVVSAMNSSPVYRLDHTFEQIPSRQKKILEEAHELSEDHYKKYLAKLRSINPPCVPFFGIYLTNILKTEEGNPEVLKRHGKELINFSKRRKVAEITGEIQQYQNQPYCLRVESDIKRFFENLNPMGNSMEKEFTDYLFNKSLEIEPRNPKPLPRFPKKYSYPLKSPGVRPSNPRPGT
Method: The ability of a compound of Formula (I) to bind to SOS1 was measured using a HTRF displacement assay. […] After a 1-hour incubation at room temperature, the HTRF signal was measured using Clairostar plate reader (BMG Labtech) according to the manufacturer's instructions. Excitation filter EX-TR was used, and emission 1 was detected at 650-610 nm and emission 2 detected at 620-610 nm. The HTRF ratio was calculated using the formula: [emission 1/emission 2]*10000.
Background signals were calculated from well with a 10 μM inhibitor, known to inhibit 100% at that concentration. The background subtracted signals were converted to % binding relative to DMSO controls. Data were analyzed using XLFIT software (IDBS) using a Morrison equation for competitive binding and Ki's were generated compound of Formula (I).

pERK in MKN1 cells = assay: pERK inhibition, In-Cell Western (LI-COR Odyssey), MKN1 cells; format: cell-based; conditions: MKN1 or H358 cells (table does not say which), 0.5-1 hour incubation, read-out: IC50 (nM), pERK inhibition
Method in brief: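 IC50 was fitted from % pERK inhibition, calculated as the GAPDH-normalised pERK signal of each well divided by the vehicle mean. Signal was imaged at 700 and 800 nm after fixation, methanol permeabilisation and dual antibody staining. Before fixation, MKN1 cells had received compound for about 0.5–1 h at 37 °C, top concentration 10 µM, nine 3-fold dilutions.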

[2] = Table A1, Morrison equation for competitive binding
[3] = Table A, Morrison equation for competitive binding

SMILES	Ki [1, 2]	IC50 (pERK in MKN1 cells; Homo sapiens, MKN-1, Table B1)	Ki [1, 3]	IC50 (pERK in MKN1 cells; Homo sapiens, MKN-1, Table B)	IC50 (pERK in MKN1 cells; Table B)
COC1(c2cc3c(N[C@H](C)c4cccc(C#N)c4C)nnc(C)c3cn2)CCOCC1 [Example P-81, (R)-3-(1-((7-(4-methoxytetrahydro-2H-pyran-4-yl)-4-methylpyrido[3,4-d]pyridazin-1-yl)amino)ethyl)-2-methylbenzonitrile]	61.7 nM	565 nM			
Cc1c(C#N)cccc1[C@@H](C)Nc1nnc(C)c2cnc(N3CC[C@H](O)C3)cc12 [Example 1-46, 3-((R)-1-((7-((S)-3-hydroxypyrrolidin-1-yl)-4-methylpyrido[3,4-d]pyridazin-1-yl)amino)ethyl)-2-methylbenzonitrile]			1.95 nM	71.3 nM	
Cc1c(C#N)cccc1[C@@H](C)Nc1nnc(C)c2cnc(N3C[C@H]4CCCN(C)[C@H]4C3)cc12 (single isomer, unassigned) [Example 6-5]			1.12 nM	85.2 nM	
Cc1c(C#N)cccc1[C@@H](C)Nc1nnc(C)c2cc(F)c(N3CCC34COC4)cc12 [Example P-230, (R)-3-(1-((6-fluoro-4-methyl-7-(6-oxa-1-azaspiro[3.3]heptan-1-yl)phthalazin-1-yl)amino)ethyl)-2-methylbenzonitrile]	2.51 nM	26 nM			
Cc1c([C@@H](C)Nc2nnc(C)c3ccc(N4CCOCC4)cc23)cc(N)nc1C(F)(F)F [Example 1-111, (R)-N-(1-(6-amino-3-methyl-2-(trifluoromethyl)pyridin-4-yl)ethyl)-4-methyl-7-morpholinophthalazin-1-amine]			2.91 nM	57.9 nM	
Cc1c(C#N)cccc1[C@@H](C)Nc1nnc(C)c2cnc(N3CCN(C4CC4)CC3)cc12 [Example 1-33, (R)-3-(1-((7-(4-cyclopropylpiperazin-1-yl)-4-methylpyrido[3,4-d]pyridazin-1-yl)amino)ethyl)-2-methylbenzonitrile]			1.87 nM	87.8 nM	
Cc1c(C#N)cccc1[C@@H](C)Nc1nnc(C)c2cnc(N(C)[C@@H]3CCNC3)cc12 [Example 1-52, 2-methyl-3-((R)-1-((4-methyl-7-(methyl((R)-pyrrolidin-3-yl)amino)pyrido[3,4-d]pyridazin-1-yl)amino)ethyl)benzonitrile]			1.11 nM	457 nM	
Cc1nnc(N[C@H](C)c2cccc(C(F)(F)F)c2F)c2cc(N3CCOCC3)c(C#N)cc12 [Example 6-18, (R)-1-((1-(2-fluoro-3-(trifluoromethyl)phenyl)ethyl)amino)-4-methyl-7-morpholinophthalazine-6-carbonitrile]			7.06 nM	311 nM	
Cc1nnc(N[C@H](C)c2cccc(C(F)(F)F)c2F)c2cc(N3CCOCC3)c(F)cc12 [Example 4-6, (R)-6-fluoro-N-(1-(2-fluoro-3-(trifluoromethyl)phenyl)ethyl)-4-methyl-7-morpholinophthalazin-1-amine]			12.3 nM	176 nM	
Cc1c(C#N)cccc1[C@@H](C)Nc1nnc(C)c2cnc(N3CCN(C)C[C@@H]3C)cc12 [Example 1-17, 3-((R)-1-((7-((S)-2,4-dimethylpiperazin-1-yl)-4-methylpyrido[3,4-d]pyridazin-1-yl)amino)ethyl)-2-methylbenzonitrile]			0.74 nM	42.6 nM	
Cc1c(C#N)cccc1[C@@H](C)Nc1nnc(C)c2cnc(N3CCN(C(=O)[C@H]4CCCN4C)CC3)cc12 [Example 2-1, 2-methyl-3-((R)-1-((4-methyl-7-(4-(methyl-D-prolyl)piperazin-1-yl)pyrido[3,4-d]pyridazin-1-yl)amino)ethyl)benzonitrile]			0.458 nM	551 nM	
Cc1c(C#N)cccc1[C@@H](C)Nc1nnc(C)c2cnc(N(C)[C@@H]3CCCNC3)cc12 [Example 1-54, 2-methyl-3-((R)-1-((4-methyl-7-(methyl((R)-piperidin-3-yl)amino)pyrido[3,4-d]pyridazin-1-yl)amino)ethyl)benzonitrile]			1.2 nM	142 nM	
Cc1c(C#N)cccc1[C@@H](C)Nc1nnc(C)c2cnc(N3CCc4c(ncn4C)C3)cc12 [Example P-45, (R)-2-methyl-3-(1-((4-methyl-7-(1-methyl-1,4,6,7-tetrahydro-5H-imidazo[4,5-c]pyridin-5-yl)pyrido[3,4-d]pyridazin-1-yl)amino)ethyl)benzonitrile]	0.777 nM	176 nM			
CCN(c1cc2c(N[C@H](C)c3cccc(C#N)c3C)nnc(C)c2cn1)C1CCN(C)C1 (stereo in doubt) [Example 1-104, 3-((R)-1-((7-(ethyl((S)-1-methylpyrrolidin-3-yl)amino)-4-methylpyrido[3,4-d]pyridazin-1-yl)amino)ethyl)-2-methylbenzonitrile]			0.901 nM		75.5 nM
Cc1c(C#N)cccc1[C@@H](C)Nc1nnc(C)c2cnc(N3CCN(C)C(C)(C)C3)cc12 [Example 1-69, (R)-2-methyl-3-(1-((4-methyl-7-(3,3,4-trimethylpiperazin-1-yl)pyrido[3,4-d]pyridazin-1-yl)amino)ethyl)benzonitrile]			0.849 nM	39 nM	
CCN1CCC(Nc2cc3c(N[C@H](C)c4cccc(C#N)c4C)nnc(C)c3cn2)CC1 [Example 1-42, (R)-3-(1-((7-((1-ethylpiperidin-4-yl)amino)-4-methylpyrido[3,4-d]pyridazin-1-yl)amino)ethyl)-2-methylbenzonitrile]			7.37 nM	257 nM	
Cc1nnc(N[C@H](C)c2cccc(C(F)(F)F)c2F)c2cc(N(C)[C@H]3CCN(C)C3)c(F)cc12 [Example P-181, 6-fluoro-N^1-((R)-1-(2-fluoro-3-(trifluoromethyl)phenyl)ethyl)-N7,4-dimethyl-N^7-((S)-1-methylpyrrolidin-3-yl)phthalazine-1,7-diamine]	0.711 nM	223 nM			
CCN1CCN(c2cc3c(N[C@H](C)c4cccc(C#N)c4C)nnc(C)c3cn2)[C@H](C)C1 [Example 1-15, 3-((R)-1-((7-((R)-4-ethyl-2-methylpiperazin-1-yl)-4-methylpyrido[3,4-d]pyridazin-1-yl)amino)ethyl)-2-methylbenzonitrile]			0.789 nM	63.5 nM	
Cc1c(C#N)cccc1[C@@H](C)Nc1nnc(C)c2c(C)nc(N3CCN(C)C(C)(C)C3)cc12 [Example P-191, (R)-3-(1-((4,5-dimethyl-7-(3,3,4-trimethylpiperazin-1-yl)pyrido[3,4-d]pyridazin-1-yl)amino)ethyl)-2-methylbenzonitrile]	0.892 nM	26 nM			
CCN1CC[C@H](Nc2cc3c(N[C@H](C)c4cccc(C#N)c4C)nnc(C)c3cn2)C1 [Example 1-38, 3-((R)-1-((7-(((S)-1-ethylpyrrolidin-3-yl)amino)-4-methylpyrido[3,4-d]pyridazin-1-yl)amino)ethyl)-2-methylbenzonitrile]			5.6 nM	221 nM	
Cc1c(C#N)cccc1[C@@H](C)Nc1nnc(C)c2cnc(N3CCCCC3)cc12 [Example P-3, (R)-2-methyl-3-(1-((4-methyl-7-(piperidin-1-yl)pyrido[3,4-d]pyridazin-1-yl)amino)ethyl)benzonitrile]	2.22 nM	302 nM			
Cc1c(C#N)cccc1[C@@H](C)Nc1nnc(C)c2c(C)nc(N(C)[C@H]3CCN(C)C3)cc12 [Example P-190, 3-((R)-1-((4,5-dimethyl-7-(methyl((S)-1-methylpyrrolidin-3-yl)amino)pyrido[3,4-d]pyridazin-1-yl)amino)ethyl)-2-methylbenzonitrile]	0.572 nM	63.6 nM			
Cc1c(C#N)cccc1[C@@H](C)Nc1nnc(C)c2cc(Cl)c(N(C)[C@H]3CCN(C)C3)cc12 [Example P-193, 3-((R)-1-((6-chloro-4-methyl-7-(methyl((S)-1-methylpyrrolidin-3-yl)amino)phthalazin-1-yl)amino)ethyl)-2-methylbenzonitrile]	1.47 nM	512 nM			
Cc1c(C#N)cccc1[C@@H](C)Nc1nnc(C)c2cc(CF)c(N3CCN(C)CC3)cc12 [Example P-186, (R)-3-(1-((6-(fluoromethyl)-4-methyl-7-(4-methylpiperazin-1-yl)phthalazin-1-yl)amino)ethyl)-2-methylbenzonitrile]	1.27 nM	181 nM			
Cc1c(C#N)cccc1[C@@H](C)Nc1nnc(C)c2cnc(N(C)[C@H]3CCCNC3)cc12 [Example 1-53, 2-methyl-3-((R)-1-((4-methyl-7-(methyl((S)-piperidin-3-yl)amino)pyrido[3,4-d]pyridazin-1-yl)amino)ethyl)benzonitrile]			0.853 nM	210 nM	
Cc1c(C#N)cccc1[C@@H](C)Nc1nnc(C)c2c(C)nc(N3C[C@H]4C[C@@H]3CN4C)cc12 [Example P-192, 3-((R)-1-((4,5-dimethyl-7-((1R,4R)-5-methyl-2,5-diazabicyclo[2.2.1]heptan-2-yl)pyrido[3,4-d]pyridazin-1-yl)amino)ethyl)-2-methylbenzonitrile]	2.93 nM	104 nM			
